Assay results taken from ChEMBL document CHEMBL1275304, “Use of phosphonyl carbanions in the synthesis of anti-inflammatory active phosphorus-containing fused heterocycles and relevance phosphonates” (Eur J Med Chem, 2010).

Tests used:
Rattus norvegicus [1] = assay: Antiinflammatory activity against carrageenan-induced fisher 344 rat paw edema model assessed as inhibition of granuloma at 100 mg/kg; type: functional
Rattus norvegicus [2] = assay: Antiinflammatory activity against carrageenan-induced fisher 344 rat paw edema model assessed as reduction of paw volume at 50 mg/kg, ip after 3.5 hrs by plethysmometer; type: functional; conditions: fisher 344, ip, route intraperitoneal
[3] = Acute toxicity in ip dosed albino mouse after 24 hrs; type: organism-based; conditions: in vivo
Mus musculus [4] = assay: Toxicity in albino mouse assessed as mortality at 500 to 1000 mg/kg, ip after 24 hrs; type: organism-based; design: dose 500-1000 mg/kg, route intraperitoneal; conditions: in vivo
Mus musculus [5] = assay: Toxicity in albino mouse assessed as toxic symptom at 500 to 1000 mg/kg, ip after 24 hrs; type: organism-based; design: dose 500-1000 mg/kg, route intraperitoneal; conditions: in vivo
Rattus norvegicus [6] = assay: Antiinflammatory activity against carrageenan-induced fisher 344 rat paw edema model assessed as inhibition of granuloma; type: functional, organism-based

SMILES	inhibition in vivo at 100 mg/kg (Rattus norvegicus [1]) [%]	inhibition in vivo at 50 mg/kg (Rattus norvegicus [2]) [%]	LD50 at 24 h [3] [µmol/kg]	Activity (Mus musculus [4])	Activity (Mus musculus [5])	Activity (Rattus norvegicus [6])
CCOP1(=O)OC2(C)C(=O)C=CC2(C)C1C#N (stereo not drawn)	66.6	66.6	> 300			
CCOC(=O)C1=c2cc(C(C(=O)OCC)P(=O)(OCC)OCC)sc2=C(C)OP1(=O)OCC (stereo not drawn)		76.1	> 300	Non-toxic	Non-toxic	Dose-dependent effect
CCOP(=O)(/C=C\c1cc2c(s1)=C(C)OP(=O)(OCC)C=2C)OCC (stereo not drawn)		87.6	> 300	Non-toxic	Non-toxic	
CCOP1(=O)OC(C)=c2sc(C(C(=O)OC)P(=O)(OCC)OCC)cc2=C1C(=O)OC (stereo not drawn)		75.9	> 300	Non-toxic	Non-toxic	Dose-dependent effect
CCOP1(=O)OC(C)=c2sc(C(C#N)P(=O)(OCC)OCC)cc2=C1C#N (stereo not drawn)		81.1	> 300	Non-toxic	Non-toxic	
COc1ccc2c(c1)c(CC(=O)O)c(C)n2C(=O)c1ccc(Cl)cc1 [INDOMETHACIN]		68.4	> 300			
CCOP1(=O)OC(C)=c2sc(Br)cc2=C1C#N (stereo not drawn)	62.8	62.8	> 300			
CCOP1(=O)OC2(C)C(=O)C=CC2(C)C1C(=O)OC (stereo not drawn)	63.2	63.2	> 300			
CCOP1(=O)OC(C)=c2sc(Br)cc2=C1C(=O)OC (stereo not drawn)	68.1	68.1	> 300			
CCOC(=O)C1=c2cc(Br)sc2=C(C)OP1(=O)OCC (stereo not drawn)	60.4	60.4	> 300			
CCOC(=O)C1C2(C)C=CC(=O)C2(C)OP1(=O)OCC (stereo not drawn)	59.7	59.7	> 300			
